This note sets out measurements from patent US20240228512A1, “ACYCLIC OXAZEPINE COMPOUNDS COMPRISING A 6-AZA MOIETY AND USES THEREOF” (Genentech, Inc., priority 2022, published 2024).

One assay relates to SW620 cells. The experiment in a line: SW620 3D proliferation assay (CellTiter-Glo). It counts as cell-based. To be noted: Homo sapiens, SW-620, 168 h, SW620, 3D culture, 7 days, read-out: SW620 CTG IC50. An outline of the steps:
(§1)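 IC50 values were fitted with a 4-parameter logistic to luminescent ATP signal (CellTiter-Glo 3D) after 7-day compound exposure. Seeding was 3000 (96-well) or 1000 (384-well) cells/well in low-attachment plates with RPMI-1640, 10% FBS, 2 mM L-glutamine.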

In a further assay the test system is H1975 cells. Nature of the assay: H1975 CTG proliferation assay. It counts as cell-based. To be noted: Homo sapiens, NCI-H1975, H1975, CTG.
The test system of the next assay is HPAC cells. Nature of the assay: HPAC 3D proliferation assay (CellTiter-Glo). To be noted: Homo sapiens, 168 h, 3D culture, 7 days, read-out: HPAC CTG IC50. It counts as cell-based. An outline of the steps:
as §1

Another assay deals with SW480 cells. The experiment in a line: SW480 CTG proliferation assay. It counts as cell-based. To be noted: Homo sapiens.
Another assay concerns SW620 PERK. Nature of the assay: SW620 PERK assay. It counts as cell-based. Conditions: Homo sapiens, SW-620, SW620, PERK.
For assay [1], the target named is recombinant human KRAS wild type (SOS1-mediated nucleotide exchange) (Homo sapiens (Human), UniProt P01116). Nature of the assay: KRAS biochemical assay, BODIPY-GDP exchange TR-FRET (WT-GDP HTRF).
Chain of recombinant human KRAS wild type (SOS1-mediated nucleotide exchange) (P01116-2 other isoform, or with tags, fused parts or gaps): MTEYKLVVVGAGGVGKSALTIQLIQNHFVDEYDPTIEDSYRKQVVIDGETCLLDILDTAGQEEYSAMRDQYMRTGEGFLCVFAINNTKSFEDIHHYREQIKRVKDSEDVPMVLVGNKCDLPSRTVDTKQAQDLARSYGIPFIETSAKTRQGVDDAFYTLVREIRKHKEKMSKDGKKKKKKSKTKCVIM
The target of assay [2] is recombinant human mutant KRas G12V (SOS1-mediated nucleotide exchange) (Homo sapiens (Human), UniProt P01116, G12V). The experiment in a line: KRAS biochemical assay, BODIPY-GDP exchange TR-FRET (G12V-GDP HTRF).
Chain of recombinant human mutant KRas G12V (SOS1-mediated nucleotide exchange) (P01116-2 other isoform, or with tags, fused parts or gaps G12V): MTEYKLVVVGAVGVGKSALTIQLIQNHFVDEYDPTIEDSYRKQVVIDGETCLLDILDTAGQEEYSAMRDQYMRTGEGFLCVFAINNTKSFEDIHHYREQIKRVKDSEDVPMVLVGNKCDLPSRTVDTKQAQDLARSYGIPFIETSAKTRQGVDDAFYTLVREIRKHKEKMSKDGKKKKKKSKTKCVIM

Bounds are passed on as bounds.

As for `C[C@H](c1cccnc1N)N1CCOc2nc(-c3cc(N)c(F)c(F)c3C(F)(F)F)c(F)c3nc(OC[C@@]45CCCN4C[C@H](F)C5)nc1c23` [Example 623, 3-((R)-1-(5-(5-amino-3,4-difluoro-2-(trifluoromethyl)phenyl)-4-fluoro-2-(((2R,7aS)-2-fluorotetrahydro-1H-pyrrolizin-7a(5H)-yl)methoxy)-8,9-dihydro-10H-7-oxa-1,3,6,10-tetraazacyclohepta[de]naphthalen-10-yl)ethyl)pyridin-2-amine], the IC50 in the assay with SW620 cells worked out at 3.3 nM; with H1975 cells, 4300 nM; with HPAC cells, 14.1 nM; with SW480 cells, 50 nM; in the assay on SW620 PERK it was 2.29 nM.

As to `C[C@H](c1cccnc1N)N1CCOc2nc(-c3cc(O)cc4cccc(F)c34)c(F)c3nc(OC[C@@]45CCCN4C[C@H](F)C5)nc1c23` [Example 25, 4-(10-((R)-1-(2-aminopyridin-3-yl)ethyl)-4-fluoro-2-(((2R,7aS)-2-fluorotetrahydro-1H-pyrrolizin-7a(5H)-yl)methoxy)-9,10-dihydro-8H-7-oxa-1,3,6,10-tetraazacyclohepta[de]naphthalen-5-yl)-5-fluoronaphthalen-2-ol], the IC50 with SW620 cells came to 8.81 nM; with H1975 cells it was 83.1 nM; in the assay on HPAC cells, 250 nM; in the assay with SW480 cells, 110 nM; in the assay on SW620 PERK it was 27.6 nM.

Consider `C#Cc1cccc2cc(O)cc(-c3nc4c5c(nc(OCC67CCN6CC(F)(F)C7)nc5c3F)N([C@H](C)c3cccnc3N)CCO4)c12` (stereo partly drawn) [Example 1, 4-(10-((R)-1-(2-aminopyridin-3-yl)ethyl)-2-((3,3-difluoro-1-azabicyclo[3.2.0]heptan-5-yl)methoxy)-4-fluoro-9,10-dihydro-8H-7-oxa-1,3,6,10-tetraazacyclohepta[de]naphthalen-5-yl)-5-ethynyinaphthalen-2-ol], for which the IC50 came to 7 nM in the assay with SW620 cells; 47.4 nM in the assay on H1975 cells; 144 nM in the assay with HPAC cells; 26 nM in the assay on SW480 cells; 1.42 nM with SW620 PERK.

`C#Cc1cccc2cc(O)cc(-c3nc4c5c(nc(OC[C@@H]6CC[C@H]7COCCN76)nc5c3F)N([C@H](C)c3cccnc3N)CCO4)c12` [Example 17, 4-(10-((R)-1-(2-aminopyridin-3-yl)ethyl)-4-fluoro-2-(((6S,8aS)-hexahydro-1H-pyrrolo[2,1-c][1,4]oxazin-6-yl)methoxy)-9,10-dihydro-8H-7-oxa-1,3,6,10-tetraazacyclohepta[de]naphthalen-5-yl)-5-ethynyinaphthalen-2-ol]: the IC50 was found to be 13.7 nM in the assay with SW620 cells; 9.15 nM in the assay on H1975 cells; 228 nM in the assay on HPAC cells; 110 nM in the assay with SW480 cells; 4.33 nM in the assay on SW620 PERK.

With `C#Cc1cccc2cc(N)cc(-c3nc4c5c(nc(OC[C@@]67CCCN6C[C@H](F)C7)nc5c3F)N([C@H](C)c3cccnc3N)CCO4)c12` [Example 4, 3-((R)-1-(5-(3-amino-8-ethynyinaphthalen-1-yl)-4-fluoro-2-(((2R,7aS)-2-fluorotetrahydro-1H-pyrrolizin-7a(5H)-yl)methoxy)-8,9-dihydro-10H-7-oxa-1,3,6,10-tetraazacyclohepta[de]naphthalen-10-yl)ethyl)pyridin-2-amine], the IC50 with SW620 cells turned out to be 1.26 nM; in the assay on H1975 cells, 2.59 nM; in the assay on HPAC cells it was 5.72 nM; with SW480 cells it was 2.4 nM; in the assay on SW620 PERK it was 1.07 nM.

`Cc1cc(N)c(F)c(-c2nc3c4c(nc(OC[C@@]56CCCN5C[C@H](F)C6)nc4c2F)N([C@H](C)c2cccnc2N)CCO3)c1C(F)(F)F` [Example 15, 3-((1R)-1-(5-(3-amino-2-fluoro-5-methyl-6-(trifluoromethyl)phenyl)-4-fluoro-2-(((2R,7aS)-2-fluorotetrahydro-1H-pyrrolizin-7a(5H)-yl)methoxy)-8,9-dihydro-10H-7-oxa-1,3,6,10-tetraazacyclohepta[de]naphthalen-10-yl)ethyl)pyridin-2-amine]: the IC50 in the assay with SW620 cells amounted to 0.74 nM; with H1975 cells, 2.59 nM; in the assay with HPAC cells it was 8.84 nM; with SW480 cells, 10 nM; in the assay on SW620 PERK, 2.24 nM.

`Cc1cc(N)c(F)c(-c2nc3c4c(nc(OC[C@@H]5CC[C@H]6COCCN65)nc4c2F)N([C@H](C)c2cccnc2N)CCO3)c1C(F)(F)F` [Example 22, 3-((1R)-1-(5-(3-amino-2-fluoro-5-methyl-6-(trifluoromethyl)phenyl)-4-fluoro-2-(((6S,8aS)-hexahydro-1H-pyrrolo[2,1-c][1,4]oxazin-6-yl)methoxy)-8,9-dihydro-10H-7-oxa-1,3,6,10-tetraazacyclohepta[de]naphthalen-10-yl)ethyl)pyridin-2-amine]: the IC50 with SW620 cells was 6.45 nM; in the assay on H1975 cells, 48.7 nM; in the assay on HPAC cells, 67 nM; in the assay on SW480 cells, 24 nM; in the assay with SW620 PERK, 6.32 nM.

On to `CCc1cccc2cc(O)cc(-c3nc4c5c(nc(OC[C@@]67CCCN6C[C@H](F)C7)nc5c3F)N([C@H](C)c3cccnc3N)CCO4)c12` [Example 27, 4-(10-((R)-1-(2-aminopyridin-3-yl)ethyl)-4-fluoro-2-(((2R,7aS)-2-fluorotetrahydro-1H-pyrrolizin-7a(5H)-yl)methoxy)-9,10-dihydro-8H-7-oxa-1,3,6,10-tetraazacyclohepta[de]naphthalen-5-yl)-5-ethylnaphthalen-2-ol], for which the IC50 in the assay with SW620 cells stood at 1.68 nM; in the assay with H1975 cells, 2.59 nM; in the assay with HPAC cells, 55.2 nM; with SW480 cells it was 31 nM.

Consider `C[C@H](c1cccnc1N)N1CCOc2nc(-c3cc(N)nc4ccccc34)c(F)c3nc(OC[C@@]45CCCN4C[C@H](F)C5)nc1c23` [Example 602, 4-(10-((R)-1-(2-aminopyridin-3-yl)ethyl)-4-fluoro-2-(((2R,7aS)-2-fluorotetrahydro-1H-pyrrolizin-7a(5H)-yl)methoxy)-9,10-dihydro-8H-7-oxa-1,3,6,10-tetraazacyclohepta[de]naphthalen-5-yl)quinolin-2-amine], for which the IC50 in assay [1] was 22.6 nM; in assay [2] it was 2.2 nM; with SW620 cells it was 1950 nM; in the assay on H1975 cells, 296 nM; in the assay with HPAC cells, above 2000 nM; with SW620 PERK, 629 nM.

For the molecule `Cc1c(F)c(N)cc(-c2nc3c4c(nc(OC[C@@]56CCCN5C[C@H](F)C6)nc4c2F)N([C@H](C)c2cncnc2N)CCO3)c1C(F)(F)F` [Example 617, 5-((R)-1-(5-(5-amino-4-fluoro-3-methyl-2-(trifluoromethyl)phenyl)-4-fluoro-2-(((2R,7aS)-2-fluorotetrahydro-1H-pyrrolizin-7a(5H)-yl)methoxy)-8,9-dihydro-10H-7-oxa-1,3,6,10-tetraazacyclohepta[de]naphthalen-10-yl)ethyl)pyrimidin-4-amine], the IC50 was 0.31 nM in assay [1]; 0.11 nM in assay [2]; 38 nM in the assay on SW620 cells; 24.4 nM with H1975 cells; 239 nM in the assay with HPAC cells; 28.8 nM with SW620 PERK.
